This passage reports IC50 results from patent publication US7846959B2, “Raf modulators and methods of use” (Exelixis, Inc., priority 2004, dated 2010).

Read-outs that look alike come from different tables or passages of the source.

In one assay the target is c-Raf (Homo sapiens, UniProt P04049). Kind of assay: Luciferase-coupled chemiluminescence kinase assay (ATP consumption), c-Raf. The assay is classed as biochemical. In outline: (§1)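 Compound is first mixed with […] Raf enzyme in 20 mM Tris pH 7.5 containing 10 mM MgCl2, 0.03% TX-100 and 1 mM DTT (30 min, room temperature). ATP then starts a 3 h reaction, and unconsumed ATP is detected by chemiluminescence.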

The next assay has as its target B-Raf (Homo sapiens, UniProt P15056). Kind of assay: Luciferase-coupled chemiluminescence kinase assay (ATP consumption), B-Raf. The assay is classed as biochemical. In outline:
as §1

[1] abbreviates: read-out: cRaf-1 (inhibition indicated as IC50).
Setting [2] is: read-out: bRaf (inhibition indicated as IC50).

By IC50 is commonly meant the concentration at which inhibition is half-maximal.

Chain of c-Raf (P04049 whole entry): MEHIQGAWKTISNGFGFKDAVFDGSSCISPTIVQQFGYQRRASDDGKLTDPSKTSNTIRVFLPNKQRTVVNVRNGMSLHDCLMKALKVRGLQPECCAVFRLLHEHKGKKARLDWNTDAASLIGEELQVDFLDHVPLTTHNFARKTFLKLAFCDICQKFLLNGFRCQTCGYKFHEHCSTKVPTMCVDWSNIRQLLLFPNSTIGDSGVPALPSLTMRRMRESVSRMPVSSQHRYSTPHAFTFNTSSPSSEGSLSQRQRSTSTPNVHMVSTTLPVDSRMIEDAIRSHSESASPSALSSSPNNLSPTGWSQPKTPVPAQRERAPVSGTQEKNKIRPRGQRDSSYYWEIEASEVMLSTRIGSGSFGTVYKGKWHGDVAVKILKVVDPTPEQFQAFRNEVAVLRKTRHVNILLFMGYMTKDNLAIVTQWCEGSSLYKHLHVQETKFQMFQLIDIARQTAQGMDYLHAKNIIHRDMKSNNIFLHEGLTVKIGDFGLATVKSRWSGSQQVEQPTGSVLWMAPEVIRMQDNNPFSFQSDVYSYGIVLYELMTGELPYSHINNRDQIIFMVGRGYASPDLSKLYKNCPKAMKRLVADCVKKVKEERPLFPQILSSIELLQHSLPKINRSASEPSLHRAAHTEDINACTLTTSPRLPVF
Chain of B-Raf (P15056 whole entry): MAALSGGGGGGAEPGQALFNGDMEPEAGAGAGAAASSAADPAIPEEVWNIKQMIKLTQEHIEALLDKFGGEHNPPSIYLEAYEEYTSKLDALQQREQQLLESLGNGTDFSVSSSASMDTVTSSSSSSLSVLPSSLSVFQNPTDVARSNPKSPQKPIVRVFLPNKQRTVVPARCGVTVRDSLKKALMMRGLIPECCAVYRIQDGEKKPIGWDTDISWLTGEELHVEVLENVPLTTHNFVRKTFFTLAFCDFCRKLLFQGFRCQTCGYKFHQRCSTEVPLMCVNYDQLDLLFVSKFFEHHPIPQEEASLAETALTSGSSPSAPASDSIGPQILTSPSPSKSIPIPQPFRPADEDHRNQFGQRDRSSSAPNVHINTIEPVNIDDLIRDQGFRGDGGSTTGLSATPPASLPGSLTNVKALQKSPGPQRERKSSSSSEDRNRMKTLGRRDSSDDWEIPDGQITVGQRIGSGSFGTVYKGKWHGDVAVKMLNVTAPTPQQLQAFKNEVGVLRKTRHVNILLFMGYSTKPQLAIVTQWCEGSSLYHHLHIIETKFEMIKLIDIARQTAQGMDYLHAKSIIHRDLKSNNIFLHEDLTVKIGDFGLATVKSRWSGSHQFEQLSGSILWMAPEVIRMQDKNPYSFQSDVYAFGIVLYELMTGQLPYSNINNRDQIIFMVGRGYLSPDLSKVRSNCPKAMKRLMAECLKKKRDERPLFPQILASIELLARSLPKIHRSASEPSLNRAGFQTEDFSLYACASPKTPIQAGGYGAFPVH

For the molecule `COC(=O)Nc1nc2cc(C3(O)c4ccccc4C(=O)N3c3cccc(N(C)C)c3)ccc2[nH]1` (stereo not drawn) [Entry 258, methyl (5-{2-[3-(dimethylamino)phenyl]-1-hydroxy-3-oxo-2,3-dihydro-1H-isoindol-1-yl}-1H-benzimidazol-2-yl)carbamate], the 50% inhibitory concentration (IC50) at c-Raf (read-out: cRaf-1 IC50) and on B-Raf (read-out: bRaf IC50) was below 100 nM in each case.
As for `O=C(Nc1nc2ccc(C3(O)c4ccccc4C(=O)N3Cc3ccccc3)cc2[nH]1)C1CC1(F)F` (stereo not drawn) [Entry 259, 2,2-difluoro-N-{6-[1-hydroxy-3-oxo-2-(phenylmethyl)-2,3-dihydro-1H-isoindol-1-yl]-1H-benzimidazol-2-yl}cyclopropanecarboxamide], the IC50 on c-Raf (read-out: cRaf-1 IC50) and at B-Raf (read-out: bRaf IC50) was below 100 nM throughout.
Take `CCNC(=O)Nc1nc2ccc(C3(O)c4ccccc4C(=O)N3c3ccc(F)cc3)cc2[nH]1` (stereo not drawn) [Entry 260, N-ethyl-N′-{6-[2-(4-fluorophenyl)-1-hydroxy-3-oxo-2,3-dihydro-1H-isoindol-1-yl]-1H-benzimidazol-2-yl}urea]: the IC50 at c-Raf (read-out: cRaf-1 IC50) and at B-Raf (read-out: bRaf IC50) was below 100 nM throughout.
Regarding `COC(=O)Nc1nc2cc(C3(O)c4ccccc4C(=O)N3c3cccc(N)c3)ccc2[nH]1` (stereo not drawn) [Entry 261, methyl {5-[2-(3-aminophenyl)-1-hydroxy-3-oxo-2,3-dihydro-1H-isoindol-1-yl]-1H-benzimidazol-2-yl}carbamate], the half-maximal inhibitory concentration (IC50) at c-Raf (read-out: cRaf-1 IC50) and on B-Raf (read-out: bRaf IC50) was below 100 nM in each case.
For `O=C(CCCOCc1ccccc1)Nc1nc2cc(C3(O)c4ccccc4C(=O)N3Cc3ccccc3)ccc2[nH]1` (stereo not drawn) [Entry 262, N-{5-[1-hydroxy-3-oxo-2-(phenylmethyl)-2,3-dihydro-1H-isoindol-1-yl]-1H-benzimidazol-2-yl}-4-[(phenylmethyl)oxy]butanamide], the concentration for half-maximal inhibition (IC50) at c-Raf (read-out: cRaf-1 IC50) and on B-Raf (read-out: bRaf IC50) was below 100 nM in each case.
In the case of `O=C(CCCN1CCCCC1)Nc1nc2cc(C3(O)c4ccccc4C(=O)N3Cc3ccccc3)ccc2[nH]1` (stereo not drawn) [Entry 263, N-{5-[1-hydroxy-3-oxo-2-(phenylmethyl)-2,3-dihydro-1H-isoindol-1-yl]-1H-benzimidazol-2-yl}-4-piperidin-1-ylbutanamide], the IC50 on c-Raf (read-out: cRaf-1 IC50) and on B-Raf (read-out: bRaf IC50) was below 100 nM throughout.
As to `CN1CCN(CCCC(=O)Nc2nc3cc(C4(O)c5ccccc5C(=O)N4Cc4ccccc4)ccc3[nH]2)CC1` (stereo not drawn) [Entry 264, N-{5-[1-hydroxy-3-oxo-2-(phenylmethyl)-2,3-dihydro-1H-isoindol-1-yl]-1H-benzimidazol-2-yl}-4-(4-methylpiperazin-1-yl)butanamide], the IC50 at c-Raf (read-out: cRaf-1 IC50) and on B-Raf (read-out: bRaf IC50) was below 100 nM in each case.
For `CCCC(=O)Nc1nc2ccc(C3(O)c4ccccc4C(=O)N3c3ccc(F)cc3)cc2[nH]1` (stereo not drawn) [Entry 265, N-{6-[2-(4-fluorophenyl)-1-hydroxy-3-oxo-2,3-dihydro-1H-isoindol-1-yl]-1H-benzimidazol-2-yl}butanamide], the half-maximal inhibitory concentration (IC50) on c-Raf (read-out: cRaf-1 IC50) and at B-Raf (read-out: bRaf IC50) was below 100 nM each time.
For the molecule `COC(=O)Nc1nc2ccc(C3(O)c4cc(Cl)c(Cl)cc4C(=O)N3c3cccc(Br)c3)cc2[nH]1` (stereo not drawn) [Entry 266, methyl {6-[2-(3-bromophenyl)-5,6-dichloro-1-hydroxy-3-oxo-2,3-dihydro-1H-isoindol-1-yl]-1H-benzimidazol-2-yl}carbamate], the half-maximal inhibitory concentration (IC50) on c-Raf (read-out: cRaf-1 IC50) and at B-Raf (read-out: bRaf IC50) was 1000 to 10000 nM throughout.
With `COC(=O)Nc1nc2cc(C3(O)c4ccccc4C(=O)N3c3cccc(N(C)c4ccccc4)c3)ccc2[nH]1` (stereo not drawn) [Entry 267, methyl [5-(1-hydroxy-2-{3-[methyl(phenyl)amino]phenyl}-3-oxo-2,3-dihydro-1H-isoindol-1-yl)-1H-benzimidazol-2-yl]carbamate], the IC50 at c-Raf (read-out: cRaf-1 IC50) and at B-Raf (read-out: bRaf IC50) was below 100 nM each time.
As for `COC(=O)Nc1nc2cc(C3(O)c4ccccc4C(=O)N3S(=O)(=O)c3ccccc3)ccc2[nH]1` (stereo not drawn) [Entry 268, methyl {5-[1-hydroxy-3-oxo-2-(phenylsulfonyl)-2,3-dihydro-1H-isoindol-1-yl]-1H-benzimidazol-2-yl}carbamate], the 50% inhibitory concentration (IC50) at c-Raf (setting [1]) and on B-Raf (setting [2]) was 1000 to 10000 nM throughout.
Consider `COC(=O)Nc1nc2cc(C(=O)c3ccccc3NC(=O)Nc3ccccc3)ccc2[nH]1` [Entry 269, methyl {5-[(2-{[(phenylamino)carbonyl]amino}phenyl)carbonyl]-1H-benzimidazol-2-yl}carbamate], for which the IC50 at c-Raf (setting [1]) and on B-Raf (setting [2]) was 100 to 1000 nM in each case.
With `COC(=O)Nc1nc2cc(C(=O)c3ccccc3NC(=O)OCc3ccccc3)ccc2[nH]1` [Entry 270, methyl (5-{[2-({[(phenylmethyl)oxy]carbonyl}amino)pheny]carbonyl}-1H-benzimidazol-2-yl)carbamate], the 50% inhibitory concentration (IC50) at c-Raf (setting [1]) and on B-Raf (setting [2]) was 1000 to 10000 nM in each case.
As to `COC(=O)Nc1nc2cc(C(=O)c3ccccc3C(=O)NNc3ccccc3)ccc2[nH]1` [Entry 271, methyl [5-({2-[(2-phenylhydrazino)carbonyl]phenyl}carbonyl)-1H-benzimidazol-2-yl]carbamate], the IC50 at c-Raf (setting [1]) and on B-Raf (setting [2]) was 100 to 1000 nM throughout.
Take `COC(=O)Nc1nc2cc(C(=O)c3ccccc3C(=O)NOc3ccccc3)ccc2[nH]1` [Entry 272, methyl {5-[(2-{[(phenyloxy)amino]carbonyl}phenyl)carbonyl]-1H-benzimidazol-2-yl}carbamate]: the half-inhibitory concentration (IC50) on c-Raf (setting [1]) and on B-Raf (setting [2]) was below 100 nM in each case.
As to `CC#CCOC(=O)Nc1nc2cc(C3(O)c4ccccc4C(=O)N3c3ccc(F)cc3)ccc2[nH]1` (stereo not drawn) [Entry 273, but-2-yn-1-yl {5-[2-(4-fluorophenyl)-1-hydroxy-3-oxo-2,3-dihydro-1H-isoindol-1-yl]-1H-benzimidazol-2-yl}carbamate], the IC50 on c-Raf (setting [1]) and on B-Raf (setting [2]) was below 100 nM in each case.
`O=C(CCN1CCCCC1)Nc1nc2cc(C3(O)c4ccccc4C(=O)N3Cc3ccccc3)ccc2[nH]1` (stereo not drawn) [Entry 274, N-{5-[1-hydroxy-3-oxo-2-(phenylmethyl)-2,3-dihydro-1H-isoindol-1-yl]-1H-benzimidazol-2-yl}-3-piperidin-1-ylpropanamide]: the IC50 at c-Raf (setting [1]) and at B-Raf (setting [2]) was below 100 nM throughout.
Consider `CCC(=O)Nc1nc2ccc(C3(O)c4ccccc4C(=O)N3c3ccc(F)cc3)cc2[nH]1` (stereo not drawn) [Entry 275, N-{6-[2-(4-fluorophenyl)-1-hydroxy-3-oxo-2,3-dihydro-1H-isoindol-1-yl]-1H-benzimidazol-2-yl}propanamide], for which the IC50 on c-Raf (setting [1]) and on B-Raf (setting [2]) was below 100 nM throughout.
On to `C#CCCC(=O)Nc1nc2ccc(C(=O)c3ccccc3C(=O)Nc3ccc(F)cc3)cc2[nH]1` [Entry 276, N-(4-fluorophenyl)-2-{[2-(pent-4-ynoylamino)-1H-benzimidazol-6-yl]carbonyl}benzamide], for which the IC50 at c-Raf (setting [1]) and at B-Raf (setting [2]) was below 100 nM throughout.
In the case of `CCN(CC)CCCC(=O)Nc1nc2cc(C3(O)c4ccccc4C(=O)N3Cc3ccccc3)ccc2[nH]1` (stereo not drawn) [Entry 277, 4-(diethylamino)-N-{5-[1-hydroxy-3-oxo-2-(phenylmethyl)-2,3-dihydro-1H-isoindol-1-yl]-1H-benzimidazol-2-yl}butanamide], the IC50 at c-Raf (setting [1]) and on B-Raf (setting [2]) was below 100 nM throughout.
For `O=C(CCCN1CCCC1)Nc1nc2cc(C3(O)c4ccccc4C(=O)N3Cc3ccccc3)ccc2[nH]1` (stereo not drawn) [Entry 278, N-{5-[1-hydroxy-3-oxo-2-(phenylmethyl)-2,3-dihydro-1H-isoindol-1-yl]-1H-benzimidazol-2-yl}-4-pyrrolidin-1-ylbutanamide], the half-maximal inhibitory concentration (IC50) on c-Raf (setting [1]) and on B-Raf (setting [2]) was below 100 nM throughout.
With `O=C(Nc1nc2ccc(C3(O)c4ccccc4C(=O)N3c3ccc(F)cc3)cc2[nH]1)OCCCN1CCCCC1` (stereo not drawn) [Entry 279, 3-piperidin-1-ylpropyl {6-[2-(4-fluorophenyl)-1-hydroxy-3-oxo-2,3-dihydro-1H-isoindol-1-yl]-1H-benzimidazol-2-yl}carbamate], the figures for the IC50 on c-Raf (setting [1]) and on B-Raf (setting [2]) were below 100 nM and 100 to 1000 nM, respectively.
Turning to `CN1CCN(CCCOC(=O)Nc2nc3ccc(C4(O)c5ccccc5C(=O)N4c4ccc(F)cc4)cc3[nH]2)CC1` (stereo not drawn) [Entry 280, 3-(4-methylpiperazin-1-yl)propyl {6-[2-(4-fluorophenyl)-1-hydroxy-3-oxo-2,3-dihydro-1H-isoindol-1-yl]-1H-benzimidazol-2-yl}carbamate], the concentration for half-maximal inhibition (IC50) on c-Raf (setting [1]) and at B-Raf (setting [2]) was below 100 nM throughout.
On to `COC(=O)Nc1nc2cc(C3c4ccccc4C(=O)N3c3cccc(Br)c3)ccc2[nH]1` (stereo not drawn) [Entry 281, methyl {5-[2-(3-bromophenyl)-3-oxo-2,3-dihydro-1H-isoindol-1-yl]-1H-benzimidazol-2-yl}carbamate], for which the IC50 on c-Raf (setting [1]) and at B-Raf (setting [2]) was below 100 nM throughout.
For the molecule `C#Cc1cccc(N2C(=O)c3ccccc3C2(O)c2ccc3[nH]c(NC(=O)OC)nc3c2)c1F` (stereo not drawn) [Entry 282, methyl {5-[2-(3-ethynyl-2-fluorophenyl)-1-hydroxy-3-oxo-2,3-dihydro-1H-isoindol-1-yl]-1H-benzimidazol-2-yl}carbamate], the IC50 at c-Raf (setting [1]) and at B-Raf (setting [2]) was below 100 nM each time.
For the molecule `O=C(Nc1nc2cc(C3(O)c4ccccc4C(=O)N3c3ccc(F)cc3)ccc2[nH]1)OCCN1CCCCC1` (stereo not drawn) [Entry 283, 2-piperidin-1-ylethyl {5-[2-(4-fluorophenyl)-1-hydroxy-3-oxo-2,3-dihydro-1H-isoindol-1-yl]-1H-benzimidazol-2-yl}carbamate], the half-maximal inhibitory concentration (IC50) on c-Raf (setting [1]) is below 100 nM; on B-Raf (setting [2]), 100 to 1000 nM.
Consider `COC(=O)Nc1nc2cc(C3(O)c4ccccc4C(=O)N3c3cccc(Cl)c3C)ccc2[nH]1` (stereo not drawn) [Entry 284, methyl {5-[2-(3-chloro-2-methylphenyl)-1-hydroxy-3-oxo-2,3-dihydro-1H-isoindol-1-yl]-1H-benzimidazol-2-yl}carbamate], for which the IC50 at c-Raf (setting [1]) and at B-Raf (setting [2]) was below 100 nM each time.
